Bounds are passed on as bounds.

Type in all cases: biochemical
For assay [1], the target named is CDK9T1 (Homo sapiens, UniProt P50750). The assay is described as follows: Kinase assay CDK9T1 (Table I). Particulars: read-out: Kinase inhibition, IC50 CDK9T1. As to the method:
[The source words this procedure for another target and reports this target under the same test.] (§1) Kinase assays. The compounds from the example above were tested for their ability to inhibit kinases. Recombinant human CDK2/cyclinA (PV3267), CDK1/cyclinB (PV3292), CDK5/p35 (PV3000) and Aurora A (PV3612) were purchased from Invitrogen (Carlsbad, Calif., USA). Kinase dosage and Z′-LYTE™ substrate for each kinase assay is as follows: CDK2/cyclinA-8 ng/reaction, Ser/Thr 12 Peptide; CDK1/cyclinB-0.8 ng/reaction, Ser/Thr 12 Peptide, CDK5/p35-0.8 ng/reaction, Ser/Thr 12 Peptide, and Aurora A-16 ng/reaction, Ser/Thr 1 Peptide. All enzymatic assays were performed using Z′-LYTE™ Kinase Assay Kits and were carried out following protocols provided by Invitrogen. To prepare stock solutions, compounds were dissolved at 10 mM in 100% DMSO and stored at 4° C. in amber glass vials. Enzyme reactions were initiated by adding recombinant enzyme and Z′-LYTE™ Ser/Thr peptide substrate and ATP mixture to 384-well plates containing diluted test compounds. Kinase and corresponding peptide substrate were incubated for 1 hr at room temperature in the presence of varying amounts of test compound with reaction buffer (20 μM ATP, […] [pH 7.5], 5 mM MgCl2, 0.5 mM EGTA, 0.005% Brij-35). Development buffer was added and incubated for another one hour at room temperature. Reactions were terminated by addition of stop buffer, and fluorescence emission intensity ratio 445 nm/520 nm (excited at 400 nm) was quantified by VICTOR-3 Multilabel Reader (Perkin-Elmer, Waltham, Mass., USA). Phosphorylation was calculated from the emission ratio. IC50 was determined using Sigmoid curve-fitting software Origin 6.0 (MicroCal, LLC, Northampton, Mass., USA).

The target of assay [2] is T1, CDK1/cyclinB (Homo sapiens, UniProt P06493).
T1 construct: purchased Invitrogen PV3292
T1 sequence (P06493 whole entry): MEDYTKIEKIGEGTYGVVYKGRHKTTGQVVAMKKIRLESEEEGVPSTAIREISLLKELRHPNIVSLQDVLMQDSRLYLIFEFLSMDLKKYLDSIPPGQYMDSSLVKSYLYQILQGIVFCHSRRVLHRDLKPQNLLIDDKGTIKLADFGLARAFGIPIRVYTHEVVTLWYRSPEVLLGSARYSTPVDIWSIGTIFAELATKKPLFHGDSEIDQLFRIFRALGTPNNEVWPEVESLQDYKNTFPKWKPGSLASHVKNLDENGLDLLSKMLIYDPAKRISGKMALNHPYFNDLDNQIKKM
T1 sequence (P14635 whole entry partner): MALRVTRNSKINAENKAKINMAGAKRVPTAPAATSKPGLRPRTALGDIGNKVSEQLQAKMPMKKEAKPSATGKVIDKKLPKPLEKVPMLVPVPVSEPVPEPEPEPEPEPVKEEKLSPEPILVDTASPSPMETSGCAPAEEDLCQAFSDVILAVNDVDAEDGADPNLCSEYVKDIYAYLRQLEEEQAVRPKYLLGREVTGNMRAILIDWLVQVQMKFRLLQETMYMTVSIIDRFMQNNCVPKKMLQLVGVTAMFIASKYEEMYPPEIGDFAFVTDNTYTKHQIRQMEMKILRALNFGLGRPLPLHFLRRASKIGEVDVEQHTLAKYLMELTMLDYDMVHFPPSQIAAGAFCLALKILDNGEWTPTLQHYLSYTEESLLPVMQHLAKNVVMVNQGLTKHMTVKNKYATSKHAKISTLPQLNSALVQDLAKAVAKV
The assay is described as follows: Z'-LYTE kinase assay CDK1/cyclinB. Conditions: read-out: Kinase inhibition, IC50 CDK1B. The protocol:
as §1

In assay [3] the target is T2, CDK2/cyclinA (Homo sapiens, UniProt P24941).
T2 construct: purchased Invitrogen PV3267
The assay is described as follows: Z'-LYTE kinase assay CDK2/cyclinA. Particulars: read-out: Kinase inhibition, IC50 CDK2A. The protocol:
as §1

The target of assay [4] is T3, CDK5/p35 (Homo sapiens, UniProt Q00535).
T3 construct: purchased Invitrogen PV3000
T3 sequence (Q00535 whole entry): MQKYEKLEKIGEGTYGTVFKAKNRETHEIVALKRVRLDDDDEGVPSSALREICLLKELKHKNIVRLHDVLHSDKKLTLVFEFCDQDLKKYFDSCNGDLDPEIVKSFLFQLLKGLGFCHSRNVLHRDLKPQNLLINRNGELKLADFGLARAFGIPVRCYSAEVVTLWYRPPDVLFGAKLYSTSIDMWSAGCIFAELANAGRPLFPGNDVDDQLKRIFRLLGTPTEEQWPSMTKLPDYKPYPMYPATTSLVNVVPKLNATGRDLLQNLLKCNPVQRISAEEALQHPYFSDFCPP
T3 sequence (Q15078 whole entry partner): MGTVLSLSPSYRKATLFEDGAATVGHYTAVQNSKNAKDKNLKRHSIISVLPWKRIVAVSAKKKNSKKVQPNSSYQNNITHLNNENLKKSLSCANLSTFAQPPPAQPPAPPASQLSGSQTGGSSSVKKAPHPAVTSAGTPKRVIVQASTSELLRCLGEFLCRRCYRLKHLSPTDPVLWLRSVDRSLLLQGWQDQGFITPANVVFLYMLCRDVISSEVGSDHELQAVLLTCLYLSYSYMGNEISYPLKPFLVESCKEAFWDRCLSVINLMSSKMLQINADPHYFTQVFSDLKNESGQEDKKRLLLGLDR
Nature of the assay: Z'-LYTE kinase assay CDK5/p35. Particulars: read-out: Kinase inhibition, IC50 CDK5/p35. The protocol: as §1

Assay [5] addresses Aurora B (Homo sapiens, UniProt Q96GD4). Nature of the assay: Kinase assay Aurora B (Table I). Particulars: read-out: Kinase inhibition, IC50 Aurora B. As to the method:
[The source words this procedure for another target and reports this target under the same test.] as §1

The target in assay [6] is T4, Aurora A (Homo sapiens, UniProt O14965).
T4 construct: purchased Invitrogen PV3612
T4 sequence (O14965 1-403): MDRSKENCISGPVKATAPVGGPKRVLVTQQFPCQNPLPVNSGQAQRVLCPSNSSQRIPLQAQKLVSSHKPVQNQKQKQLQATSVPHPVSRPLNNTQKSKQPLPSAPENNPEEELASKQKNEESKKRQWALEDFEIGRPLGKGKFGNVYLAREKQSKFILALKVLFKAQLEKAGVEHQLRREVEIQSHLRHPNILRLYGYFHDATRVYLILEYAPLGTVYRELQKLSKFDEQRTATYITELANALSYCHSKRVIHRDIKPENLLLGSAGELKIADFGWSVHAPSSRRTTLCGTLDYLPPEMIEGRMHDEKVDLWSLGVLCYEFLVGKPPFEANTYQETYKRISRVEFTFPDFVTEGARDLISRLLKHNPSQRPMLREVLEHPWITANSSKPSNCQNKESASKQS
Nature of the assay: Z'-LYTE kinase assay Aurora A. Particulars: read-out: Kinase inhibition, IC50 Aurora A. The protocol:
as §1

Chain of CDK9T1 (P50750 whole entry): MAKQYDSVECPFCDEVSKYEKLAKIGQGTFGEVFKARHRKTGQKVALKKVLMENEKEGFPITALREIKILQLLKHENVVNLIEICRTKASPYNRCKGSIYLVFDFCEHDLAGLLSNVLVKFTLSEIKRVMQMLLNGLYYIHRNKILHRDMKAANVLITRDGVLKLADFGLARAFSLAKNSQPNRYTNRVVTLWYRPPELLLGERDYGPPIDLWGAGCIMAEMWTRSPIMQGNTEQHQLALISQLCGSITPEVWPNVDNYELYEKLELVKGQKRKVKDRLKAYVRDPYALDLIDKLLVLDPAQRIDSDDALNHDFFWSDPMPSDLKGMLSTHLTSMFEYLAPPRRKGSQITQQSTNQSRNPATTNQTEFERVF
Chain of CDK9T1 (O60563 whole entry partner): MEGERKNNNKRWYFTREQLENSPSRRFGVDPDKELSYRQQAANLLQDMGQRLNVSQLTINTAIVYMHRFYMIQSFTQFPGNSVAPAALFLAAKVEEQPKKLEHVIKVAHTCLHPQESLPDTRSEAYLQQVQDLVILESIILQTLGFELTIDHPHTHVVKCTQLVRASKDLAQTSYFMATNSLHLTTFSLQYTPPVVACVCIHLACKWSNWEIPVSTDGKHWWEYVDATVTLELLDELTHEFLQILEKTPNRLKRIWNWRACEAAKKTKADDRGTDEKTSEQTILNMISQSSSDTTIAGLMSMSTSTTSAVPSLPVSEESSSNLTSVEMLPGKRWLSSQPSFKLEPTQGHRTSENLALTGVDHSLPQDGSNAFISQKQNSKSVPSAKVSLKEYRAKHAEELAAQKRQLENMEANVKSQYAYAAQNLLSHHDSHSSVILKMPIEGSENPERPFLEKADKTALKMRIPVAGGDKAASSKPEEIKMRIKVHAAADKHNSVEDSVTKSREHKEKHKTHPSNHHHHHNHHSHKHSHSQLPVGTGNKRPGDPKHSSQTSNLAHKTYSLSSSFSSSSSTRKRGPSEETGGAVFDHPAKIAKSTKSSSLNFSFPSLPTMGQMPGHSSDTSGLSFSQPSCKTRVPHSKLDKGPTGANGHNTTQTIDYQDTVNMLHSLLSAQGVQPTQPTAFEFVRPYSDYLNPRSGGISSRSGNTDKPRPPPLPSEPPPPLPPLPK
Chain of Aurora B (Q96GD4 whole entry): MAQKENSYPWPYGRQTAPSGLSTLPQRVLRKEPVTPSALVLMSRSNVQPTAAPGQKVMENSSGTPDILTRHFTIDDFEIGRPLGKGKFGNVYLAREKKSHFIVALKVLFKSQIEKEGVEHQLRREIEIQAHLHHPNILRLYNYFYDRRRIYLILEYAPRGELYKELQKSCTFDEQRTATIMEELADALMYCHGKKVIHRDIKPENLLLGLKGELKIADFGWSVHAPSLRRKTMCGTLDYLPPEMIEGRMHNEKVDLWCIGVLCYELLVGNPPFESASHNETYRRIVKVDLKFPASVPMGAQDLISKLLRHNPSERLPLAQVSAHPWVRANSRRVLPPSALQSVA

As for `Cn1cc(-c2ccnc(Nc3ccc(O)cc3Cl)n2)c2ccccc21` [Compound 3, 3-Chloro-4-(4-(1-methyl-1H-indol-3-yl)pyrimidin-2-ylamino)phenol], the IC50 in assay [1] is > 10 µM; in assay [2], > 10 µM; in assay [3] it was 7.53 µM; in assay [4], > 10 µM; in assay [5], > 10 µM; in assay [6] it was > 10 µM.

With `Cc1cc(O)ccc1Nc1nccc(-c2cn(C)c3ccccc23)n1` [Compound 4, 3-Methyl-4-[4-(1-methyl-1H-indol-3-yl)-pyrimidin-2-ylamino]-phenol], the IC50 is > 10 µM in assay [2]; 1.77 µM in assay [3]; > 10 µM in assay [4]; > 10 µM in assay [5]; > 10 µM in assay [6].

Turning to `Cc1cc(O)cc(C)c1Nc1nccc(-c2cn(C)c3ccccc23)n1` [Compound 5, 3,5-Dimethyl-4-[4-(1-methyl-1H-indol-3-yl)-pyrimidin-2-ylamino]-phenol], the IC50 in assay [2] was > 10 µM; in assay [3] it was ≥ 100 µM; in assay [4], > 10 µM; in assay [5] it was > 10 µM; in assay [6] it was > 10 µM.

For the compound `CCn1cc(-c2ccnc(Nc3ccc(O)cc3)n2)c2ccccc21` [Compound 6, 4-[4-(1-Ethyl-1H-indol-3-yl)-pyrimidin-2-ylamino]-phenol], the IC50 in assay [1] came to 0.026 µM; in assay [2], 1.21 µM; in assay [3] it was 0.003 µM; in assay [4], 0.522 µM; in assay [5], 0.47 µM; in assay [6], 1.05 µM.

`CCn1cc(-c2ccnc(Nc3cccc(O)c3)n2)c2ccccc21` [Compound 7, 3-[4-(1-Ethyl-1H-indol-3-yl)-pyrimidin-2-ylamino]-phenol]: the IC50 came out at 0.029 µM in assay [1]; 1.34 µM in assay [2]; 0.002 µM in assay [3]; 0.375 µM in assay [4]; 1.01 µM in assay [5]; 5.84 µM in assay [6].

For `CCn1cc(-c2ccnc(Nc3ccc(O)cc3C)n2)c2ccccc21` [Compound 8, 4-[4-(1-Ethyl-1H-indol-3-yl)-pyrimidin-2-ylamino]-3-methyl-phenol], the IC50 in assay [1] is > 10 µM; in assay [2], 8.95 µM; in assay [3], 0.411 µM; in assay [4], > 10 µM; in assay [5] it was > 10 µM; in assay [6], > 10 µM.

As for `CCn1cc(-c2ccnc(Nc3c(C)cc(O)cc3C)n2)c2ccccc21` [Compound 9, 4-[4-(1-Ethyl-1H-indol-3-yl)-pyrimidin-2-ylamino]-3,5-dimethyl-phenol], the IC50 in assay [1] is > 10 µM; in assay [2] it was > 10 µM; in assay [3], > 100 µM; in assay [4] it was > 10 µM; in assay [5], > 10 µM; in assay [6] it was > 10 µM.

For `Oc1ccc(Nc2nccc(-c3cn(Cc4ccccc4)c4ccccc34)n2)cc1` [Compound 10, 4-[4-(1-Benzyl-1H-indol-3-yl)-pyrimidin-2-ylamino]-phenol], the IC50 was determined as 0.67 µM in assay [1]; 2.36 µM in assay [2]; 1.17 µM in assay [3]; 4.37 µM in assay [4]; 4.22 µM in assay [6].

For the compound `Oc1cccc(Nc2nccc(-c3cn(Cc4ccccc4)c4ccccc34)n2)c1` [Compound 11, 3-[4-(1-Benzyl-1H-indol-3-yl)-pyrimidin-2-ylamino]-phenol], the IC50 in assay [1] was 1.17 µM; in assay [2], 4.82 µM; in assay [3], 4.05 µM; in assay [4], > 10 µM; in assay [5], > 10 µM; in assay [6] it was 4.67 µM.

Consider `CCn1cc(-c2ccnc(Nc3ccc(O)cc3)n2)c2cccnc21` [Compound 12, 4-(4-(1-Ethyl-1H-pyrrolo[2,3-b]pyridin-3-yl)pyrimidin-2-ylamino)phenol], for which the IC50 in assay [1] is > 10 µM; in assay [2], 4.11 µM; in assay [3] it was 0.172 µM; in assay [4] it was 5.54 µM; in assay [5] it was 0.75 µM; in assay [6] it was 0.27 µM.

`CCn1cc(-c2ccnc(Nc3cccc(O)c3)n2)c2cccnc21` [Compound 13, 3-(4-(1-Ethyl-1H-pyrrolo[2,3-b]pyridin-3-yl)pyrimidin-2-ylamino)phenol]: the IC50 in assay [1] came to 0.45 µM; in assay [2], 1.18 µM; in assay [3], 0.061 µM; in assay [4], 1.96 µM; in assay [5], 2.05 µM; in assay [6] it was 0.71 µM.

For the compound `CCn1cc(-c2ccnc(Nc3cccc([N+](=O)[O-])c3)n2)c2cccnc21` [Compound 14, 4-(1-Ethyl-1H-pyrrolo[2,3-b]pyridin-3-yl)-N-(3-nitrophenyl)pyrimidin-2-amine], the IC50 in assay [1] is 0.79 µM; in assay [2] it was > 10 µM; in assay [3], 1.07 µM; in assay [4], > 10 µM; in assay [5] it was > 10 µM; in assay [6], 1.34 µM.

As for `CCCn1cc(-c2ccnc(Nc3ccc(S(N)(=O)=O)cc3)n2)c2cccnc21` [Compound 23, 4-(4-(1-Propyl-1H-pyrrolo[2,3-b]pyridin-3-yl)pyrimidin-2-ylamino)benzenesulfonamide], the IC50 in assay [1] is 0.052 µM; in assay [2], 0.03 µM; in assay [3], 0.01 µM; in assay [4], 0.1 µM; in assay [5] it was 5.8 µM; in assay [6] it was 4.9 µM.

With `CCCn1cc(-c2ccnc(Nc3cccc(C(=O)N4CCN(C)CC4)c3)n2)c2cccnc21` [Compound 34, (4-Methylpiperazin-1-yl)(3-(4-(1-propyl-1H-pyrrolo[2,3-b]pyridin-3-yl)pyrimidin-2-ylamino)phenyl)methanone], the IC50 in assay [1] is 0.35 µM; in assay [2], 1.57 µM; in assay [3], 1.34 µM; in assay [4] it was 0.62 µM; in assay [5] it was > 10 µM; in assay [6], > 10 µM.

`CCn1cc(-c2ccnc(Nc3ccc(O)cc3)n2)c2ccnc(Cl)c21` [Compound 70, 4-(4-(7-Chloro-1-ethyl-1H-pyrrolo[2,3-c]pyridin-3-yl)pyrimidin-2-ylamino)phenol]: the IC50 was 0.095 µM in assay [1]; 0.19 µM in assay [2]; 0.016 µM in assay [3]; 0.35 µM in assay [4]; > 10 µM in assay [5]; 2.46 µM in assay [6].

Take `CCn1cc(-c2ccnc(Nc3cccc(O)c3)n2)c2ccnc(Cl)c21` [Compound 72, 3-(4-(7-Chloro-1-ethyl-1H-pyrrolo[2,3-c]pyridin-3-yl)pyrimidin-2-ylamino)phenol]: the IC50 in assay [1] turned out to be 0.079 µM; in assay [2], 0.09 µM; in assay [3] it was 0.0043 µM; in assay [4], 0.1 µM; in assay [5], 0.93 µM; in assay [6] it was 0.8 µM.

Source of the values: patent US8309550B2, “Kinase inhibitors and their use as pharmaceutical agents” (Shanghai Genomics, Inc., priority 2011, dated 2012).
